Assay results published in patent publication US8524659B2, “RNA virus-derived peptides with modified side chains” (National Taiwan University, priority 2011, dated 2013).

Tests used:
Jurkat cells [1] = assay: Cellular uptake assay by flow cytometry; format: cell-based; details: for Mean fluorescence intensity: Jurkat cells
Description: All apparatuses were sterilized by autoclave sterilizer, and the experimental surfaces were wiped with 70% ethanol. All operations were performed in a laminar flow hood. The number of cells was determined by a hemacytometer. There were 9 squares with 1.0 mm^2 area and 0.1 mm depth in the hemacytometer. The number of cells in the four corner squares was counted and averaged. The average was multiplied by 10^4 to obtain the number of cells in a 1 mL suspension. The cellular uptake experiments were performed using 8×10^5 cells. […] The cells were then washed with PBS (2 g/L KCl, 2 g/L KH2PO4, 80 g/L NaCl, 11.5 g/L Na2PO4) (2×400 μL) to remove the fetal bovine serum which might interfere with the proteolytic activity of trypsin. The cells were then incubated with 0.05% trypsin/EDTA in PBS for 5 minutes to remove the peptides which adhered to the cell surface rather than entry to the cell. The cells were washed with PBS (2×400 μL). The cells were then resuspended in 500λ PBS and transferred into the flow tube. The cells were terminated by adding Triton-X 100 to give the dead control group. Propidium iodide (PI) was added to all samples to stain the dead cells but should not stain the live cells. Fluorescence analysis for the Jurkat cells was performed with a flow cytometer (FACScan, Becton Dickinson Bioscience). The voltage of the photomultiplier tube for forward scatter, side scatter and propidium iodide was set to 270, 470, and 350, respectively. Live cells containing appropriate forward scatter and side scatter values were selected and gated as the P1 region for normal and live cells in the live control group. The minimum propidium iodide fluorescence intensity for the dead cells treated with propidium iodide in the P1 region was set as the threshold value for dead cells. In other words, cells with propidium iodide fluorescence below the threshold value would be deemed live cells. The fluorescence of 6-carboxyfluorescein was considered when the cell morphology was in the P1 region and the propidium iodide fluorescence intensity was lower than the threshold value. The 6-carboxyfluorescein fluorescence intensity was acquired for 10,000 events at room temperature. The data presented are the mean fluorescence intensity for the 10,000 cells. Each experiment was independently repeated at least three times.
Cellular uptake experiments were performed on Jurkat cells, because these cells belonged to a CD4+ helper T cell cancer cell line which was the target of HIV. Jurkat cells were incubated separately with various concentration (7, 30, 60, 120 μM) of Flu-XaaTat for 15 minutes at 37° C. in the presence of fetal bovine serum, and then treated with trypsin to remove cell-surface bound peptide.

Jurkat cells [2] = assay: Fluorescence microscope of live Jurkat cells; format: cell-based; details: 37° C.; for Cellular uptake seen in fluorescence microscope images: 30 μM peptide, 5% CO2, 15 minutes, trypsinized 10 minutes, FIG. 7; for Cellular uptake seen in fluorescence microscopy images: 7 μM peptide, 15 minutes, fetal bovine serum, trypsin 5 minutes, FIG. 1
Description: […] After incubation, the suspension was centrifuged at 2200 rpm. The cells were washed with phosphate buffered saline (137 mM NaCl, 2.7 mM KCl, 10 mM sodium phosphate dibasic, 2 mM potassium phosphate monobasic, pH 7.4) twice to remove extracellular peptide. […] Finally, cells were resuspended in 500 μL PBS containing 1 μg/mL propidium iodide. The cells were then examined by a fluorescence microscope (Olympus IX71) (492/517 nm; excitation/observation).

HIV TAR RNA [3] = assay: Fluorescence anisotropy binding of Tat peptides to fluorescein-labeled TAR RNA; details: Table 2; read-out: KD, binding affinity of Tat-peptide and TAR RNA by fluorescence anisotropy assay
Description: The binding affinity of XaaTat peptides (Xaa=Agh, Arg and Agb) for TAR RNA was measured by fluorescence anisotropy using a Varian Cary Eclipse fluorescence spectrophotometer. The anisotropy (r) was calculated using the following equation: […]
where Ivv, Ivh, Ihh, Ihv are the fluorescence intensities with the excitation polarizer and emission polarizer is oriented perpendicular (Ivh and Ihv) and parallel (Ivv and Ihh) to the direction of the polarized excitation. The fluorescein-labeled TAR RNA (F-TAR-RNA) was excited at 490 nm and the polarized emissions were monitored at 512 nm. The slits were set at 10 nm for both excitation and emission. The integration time was 20 seconds. All data were measured in a Sub-Micro (Starna Cell, Inc.) with a starting volume of 160 μL. Each addition (1 μL) of XaaTat was equilibrated for two minutes before the fluorescence signal was recorded. All experiments were performed at room temperature in TKT buffer (TKT: 50 mM Tris-HCl, pH 7.4, 20 mM KCl and 0.02% Tween20). The initial concentration of F-TAR-RNA was 25 nM. The TKT solution and peptide stock solution were both equilibrated at room temperature more than 20 minutes before the experiment. The experiment was repeated three times independently. For every single point, three measurements were performed and the average value was used for deriving the apparent (apparent KD). The apparent for the peptide-RNA complex was derived by fitting the data assuming a 1:1 peptide-RNA stoichiometry. The fitting was performed using Kaleidagraph 3.52. (Synergy Software, CA).

HIV TAR RNA [4] = assay: Gel shift assay (EMSA) with fluorescein-labeled TAR RNA in the presence of poly(dI-dC); format: binding
Description: The fluorescein-labeled TAR RNA (F-TAR-RNA) was purchased from Sigma. F-TAR-RNA was dissolved in diethyl pyrocarbonate treated H2O to give a 50 μM solution. Binding assays were performed at room temperature. Peptide and RNA were incubated in pH 7.4 buffer (10 μL) containing Tris-HCl (50 mM), KCl (50 mM), poly-dIdC (10 μg/mL), 2% glycerol, and Triton X-100 (0.05%). The F-TAR-RNA concentration was 100 nM. The samples were analyzed by loading into 12% native polyacrylamide gels in […] and electrophoresis was performed with 140 V at room temperature. Dried gels were scanned by the Typhoon TRIO+ Variable Mode Imager. Bands corresponding to the free and bound RNA were quantified using ImageQuant software. The apparent dissociation constants were globally derived from the quantified data assuming a 1:1 binding stoichiometry.

Jurkat cells [5] = assay: MTT assay for determining cell survival; format: cell-based; details: 7 μM and 30 μM peptide, 4 hours, 37° C., FIG. 4
Description: The cells were grown to appropriate cell density (roughly 2×10^6 cells/mL) and transferred into new media one day before performing the experiment. For each assay, 8×10^5 cells as determined by a hemocytometer were added into an eppendorf. The cells were centrifuged at 2200 rpm for 5 minutes. The supernatant was removed by suction. Then 200 μL of 7 μM or 30 μM XaaTat peptide was added. The cells were incubated for 4 hours at 37° C. and then centrifuged at 2200 rpm for 5 minutes. The cells were washed with RPMI medium twice, and then 200 μL of 0.5 mg/mL MTT in serum free RPMI buffer was added and incubated at 37° C. for 3.5 hours. The cells were then centrifuged at 4000 rpm for 5 minutes. The supernatant was then transferred to two wells (100 μL each) of a 96-well plate. Then 400 μL DMSO was added to the cells in the assaying eppendorf. The eppendorf was then vortexed for 5 minutes to solubilize the MTT purple crystals, and centrifuged at 2200 rpm for 5 minutes. Then the supernatant was transferred to 4 wells (100 μL each) of the 96-well plate for analysis. The absorbance at 570 was determined for each well using a microplate reader with the absorbance at 655 nm used for background correction. A standard curve was generated using different number of cells (8×10^5, 4×10^5 and 2×10^5). The absorbance for each sample for each peptide at each concentration was then correlated to the number of live cells based on the standard curve.

[6] = in the presence of poly(dI-dC) at 25° C., Table 3, read-out: KD, dissociation constant of Tat-peptide and TAR RNA by gel shift assay

| Compound | Mean fluorescence intensity (Jurkat cells [1]; 30 μM peptide) [a.u.] | Mean fluorescence intensity (Jurkat cells [1]; 60 μM peptide) [a.u.] | Mean fluorescence intensity (Jurkat cells [1]; 90 μM peptide) [a.u.] | Mean fluorescence intensity (Jurkat cells [1]; 120 μM peptide) [a.u.] | Cellular uptake seen in fluorescence microscope images (Jurkat cells [2]) | Kd (HIV TAR RNA [3]) [nM] | Kd (HIV TAR RNA [4]; [6]) [nM] | further results |
| --- | --- | --- | --- | --- | --- | --- | --- | --- |
| 6CF-βAla-Tyr-Gly-Arg-Lys-Lys-Arg-Arg-Gln-Cit-Arg-Arg-NH2 [6CF-Tat-Cit55] | 793 ± 267 | 5750 ± 134 | 9090 ± 707 | 10152 ± 787 | significant cellular uptake |  |  |  |
| Ac-Tyr-Gly-Arg-Lys-Lys-Arg-Arg-Gln-Arg-Cit-Arg-NH2 [Tat-Cit56] |  |  |  |  |  | 55 ± 9 | 164 ± 40 |  |
| 6CF-βAla-Tyr-Gly-Arg-Lys-Lys-Cit-Arg-Gln-Arg-Arg-Arg-NH2 [6CF-Tat-Cit52] | 1221 ± 116 | 5332 ± 612 | 10040 ± 726 | 12378 ± 972 | significant cellular uptake |  |  |  |
| Ac-Tyr-Gly-Arg-Lys-Lys-Arg-Arg-Gln-Cit-Arg-Arg-NH2 [Tat-Cit55] |  |  |  |  |  | 99 ± 14 | 279 ± 74 |  |
| 6CF-βAla-Tyr-Gly-Arg-Lys-Lys-Arg-Arg-Gln-Arg-Arg-Cit-NH2 [6CF-Tat-Cit57] | 465 ± 72 | 1696 ± 167 | 4031 ± 377 | 4964 ± 811 | significant cellular uptake |  |  |  |
| 6-carboxyfluorescein-βAla-Tyr-Gly-Agb-Lys-Lys-Agb-Agb-Gln-Agb-Agb-Agb-NH2 [Flu-AgbTat] |  |  |  |  |  |  |  | Uptake into cells compared to Flu-ArgTat and Flu-AghTat (Jurkat cells [1]; 7 μM peptide, 15 minutes, 37° C., fetal bovine serum, FIG. 2A): 3 times; Cellular uptake seen in fluorescence microscopy images (Jurkat cells [2]): Obvious cellular uptake |
| 6CF-βAla-Tyr-Gly-Arg-Lys-Lys-Arg-Cit-Gln-Arg-Arg-Arg-NH2 [6CF-Tat-Cit53] | 429 ± 19 | 3417 ± 288 | 6499 ± 109 | 10861 ± 1096 | significant cellular uptake |  |  |  |
| Ac-Tyr-Gly-Arg-Lys-Lys-Arg-Cit-Gln-Arg-Arg-Arg-NH2 [Tat-Cit53] |  |  |  |  |  | 102 ± 11 | 344 ± 73 |  |
| Ac-Tyr-Gly-Arg-Lys-Lys-Arg-Arg-Gln-Arg-Arg-Agp-NH2 [Ac-Agp57-Tat-NH2] |  |  |  |  |  |  |  | Kd (HIV TAR RNA [4]; in the presence of 10 μg/mL poly(dI-dC), FIG. 9, read-out: KD of peptide and TAR-RNA by gel shift assay): 56 ± 12 nM |
| Ac-Tyr-Gly-Arg-Lys-Lys-Cit-Arg-Gln-Arg-Arg-Arg-NH2 [Tat-Cit52] |  |  |  |  |  | 116 ± 17 | 235 ± 45 |  |
| Ac-Tyr-Gly-Arg-Lys-Lys-Arg-Arg-Gln-Arg-Arg-Cit-NH2 [Tat-Cit57] |  |  |  |  |  | 49 ± 6 | 146 ± 30 |  |
| 6CF-βAla-Tyr-Gly-Cit-Lys-Lys-Arg-Arg-Gln-Arg-Arg-Arg-NH2 [6CF-Tat-Cit49] | 1791 ± 555 | 6452 ± 740 | 13284 ± 1441 | 15784 ± 1567 | significant cellular uptake |  |  |  |
| Ac-Tyr-Gly-Cit-Lys-Lys-Arg-Arg-Gln-Arg-Arg-Arg-NH2 [Tat-Cit49] |  |  |  |  |  | 94 ± 13 | 138 ± 21 |  |
| CC(=O)N[C@@H](Cc1ccc(O)cc1)C(=O)NCC(=O)N[C@@H](CCCCNC(=N)N)C(=O)N[C@@H](CCCCN)C(=O)N[C@@H](CCCCN)C(=O)N[C@@H](CCCCNC(=N)N)C(=O)N[C@@H](CCCCNC(=N)N)C(=O)N[C@@H](CCC(N)=O)C(=O)N[C@@H](CCCCNC(=N)N)C(=O)N[C@@H](CCCCNC(=N)N)C(=O)N[C@@H](CCCCNC(=N)N)C(N)=O [AghTat, Ac-Tyr-Gly-Agh-Lys-Lys-Agh-Agh-Gln-Agh-Agh-Agh-NH2] |  |  |  |  |  |  |  | Cytotoxicity (cell survival) (Jurkat cells [5]): minimal cytotoxicity |
| 6-carboxyfluorescein-βAla-Tyr-Gly-Agh-Lys-Lys-Agh-Agh-Gln-Agh-Agh-Agh-NH2 [Flu-AghTat] |  |  |  |  |  |  |  | Cellular uptake compared to Flu-ArgTat (Jurkat cells [1]; concentrations higher than 7 μM, FIG. 2B): more cellular uptake; Cellular uptake seen in fluorescence microscopy images (Jurkat cells [2]): Obvious cellular uptake |
| 6CF-βAla-Tyr-Gly-Arg-Lys-Lys-Arg-Arg-Gln-Arg-Cit-Arg-NH2 [6CF-Tat-Cit56] | 429 ± 95 | 2305 ± 249 | 6094 ± 792 | 11617 ± 1339 | significant cellular uptake |  |  |  |
| 6-carboxyfluorescein-βAla-Tyr-Gly-Arg-Lys-Lys-Arg-Arg-Gln-Arg-Arg-Arg-NH2 [Flu-ArgTat, reference compound] | 2170 ± 1692 | 5258 ± 2006 | 7042 ± 1475 | 8628 ± 3585 |  |  |  | Cellular uptake seen in fluorescence microscopy images (Jurkat cells [2]): Obvious cellular uptake |
